The source of these data is patent US4518529A, “Antibiotics C-19393S2” (Takeda Chemical Industries, Ltd., priority 1979, dated 1985).

One data set concerns Escherichia coli TN 659. Description: Increasing effect on antimicrobial activity of ampicillin and cefotiam by C-19393S2, E. coli TN 659. The settings on record: read-out: Minimum Inhibitory Concentration. In kind it is cell-based. An excerpt:
(§1) *Clinically isolated strains having the ability to produce betalactamase
(§2) Medium: Heart Infusion Agar (Eiken Chemical Co., Japan)

Data set [1] has as its system Klebsiella pneumoniae TN 1725. Description: Increasing effect on antimicrobial activity of ampicillin and cefotiam by C-19393S2, K. pneumoniae TN 1725. In kind it is cell-based. The settings on record: read-out: Minimum Inhibitory Concentration.
Text: as §1, §2

A further data set concerns Proteus vulgaris TN 224. Nature of the data set: Increasing effect on antimicrobial activity of ampicillin and cefotiam by C-19393S2, P. vulgaris TN 224. The settings on record: read-out: Minimum Inhibitory Concentration. It is filed as cell-based.
Text: as §1, §2

The subject of data set [2] is gram-positive and gram-negative bacteria. Nature of the data set: Antimicrobial activity (in words). It is filed as cell-based.
A further data set is described as follows: Solubility. It is filed as physicochemical.
A short description of the next data set: Stability. In kind it is physicochemical.
For another data set, the system named is betalactamase. Nature of the data set: Betalactamase inhibiting activity. It is filed as biochemical.
Data set [3] has as its system various bacteria which exhibit resistance to penicillin derivatives and/or cephalosporin derivatives. Nature of the data set: Sensitivity of resistant bacteria to penicillin and/or cephalosporin derivatives. The settings on record: to penicillin derivatives and/or cephalosporin derivatives (ampicillin, cefotiam). In kind it is cell-based.
The test system of another data set is Escherichia coli NIHJ. Nature of the data set: Antimicrobial spectrum, MIC on bouillon agar, E. coli NIHJ. It is filed as cell-based. The settings on record: read-out: Minimum Inhibitory Concentration. An excerpt: (§3) The biological properties of C-19393S2 are described below. The antibiotic spectrum of C-19393S2 sodium salt against various microorganisms are shown below in Table 4.

Data set [4] relates to Salmonella typhimurium IFO 12529. Description: Antimicrobial spectrum, MIC on bouillon agar, S. typhimurium. It is filed as cell-based. The settings on record: Salmonella enterica, read-out: Minimum Inhibitory Concentration.
Text: as §3

Data set [5] relates to Klebsiella pneumoniae IFO 3318. Description: Antimicrobial spectrum, MIC on bouillon agar, K. pneumoniae. In kind it is cell-based. The settings on record: IFO3318, read-out: Minimum Inhibitory Concentration.
Text: as §3

Data set [6] deals with Proteus vulgaris IFO 3045. Description: Antimicrobial spectrum, MIC on bouillon agar, P. vulgaris. It is filed as cell-based. The settings on record: IFO3045, read-out: Minimum Inhibitory Concentration.
Text: as §3

Data set [7] has as its system Proteus mirabilis IFO 3845. Nature of the data set: Antimicrobial spectrum, MIC on bouillon agar, P. mirabilis. The settings on record: IFO3845, read-out: Minimum Inhibitory Concentration. In kind it is cell-based.
Text: as §3

The test system of data set [8] is Serratia marcescens IFO 12648. Description: Antimicrobial spectrum, MIC on bouillon agar, S. marcescens. In kind it is cell-based. The settings on record: IFO12648, read-out: Minimum Inhibitory Concentration.
Text: as §3

Data set [9] has as its system Alcaligenes faecalis IFO 13111. Nature of the data set: Antimicrobial spectrum, MIC on bouillon agar, A. faecalis. The settings on record: IFO13111, read-out: Minimum Inhibitory Concentration. In kind it is cell-based.
Text: as §3

Data set [10] has as its system Pseudomonas aeruginosa IFO 3080. Nature of the data set: Antimicrobial spectrum, MIC on bouillon agar, P. aeruginosa. The settings on record: IFO3080, read-out: Minimum Inhibitory Concentration. In kind it is cell-based.
Text: as §3

For data set [11], the system named is Comamonas terrigena IFO 13299. Description: Antimicrobial spectrum, MIC on bouillon agar, C. terrigena. In kind it is cell-based. The settings on record: IFO13299, read-out: Minimum Inhibitory Concentration.
Text: as §3

For data set [12], the system named is Staphylococcus aureus 209P. Description: Antimicrobial spectrum, MIC on bouillon agar, S. aureus. In kind it is cell-based. The settings on record: read-out: Minimum Inhibitory Concentration.
Text: as §3

The test system of a further data set is Sarcina lutea IFO 3232. Description: Antimicrobial spectrum, MIC on bouillon agar, S. lutea. It is filed as cell-based. The settings on record: Micrococcus luteus, IFO3232, read-out: Minimum Inhibitory Concentration.
Text: as §3

Data set [13] relates to Bacillus subtilis IFO 3513. Description: Antimicrobial spectrum, MIC on bouillon agar, B. subtilis. It is filed as cell-based. The settings on record: IFO3513, read-out: Minimum Inhibitory Concentration.
Text: as §3

Another data set concerns Bacillus cereus IFO 3460. Nature of the data set: Antimicrobial spectrum, MIC on bouillon agar, B. cereus. In kind it is cell-based. The settings on record: IFO3460, read-out: Minimum Inhibitory Concentration.
Text: as §3

For data set [14] the following is noted: Umezawa et al., The Journal of Antibiotics, Vol. 26, pages 51-54, 1973; cited from earlier work.
The mark [15] stands for this setting: TN659, Escherichia coli TN 659, C-19393S2 0, Heart Infusion Agar.
The mark [16] stands for this setting: TN659, Escherichia coli TN 659, with C-19393S2 1 μg/ml, Heart Infusion Agar.
Setting [17] is: TN659, Escherichia coli TN 659, with C-19393S2 5 μg/ml, Heart Infusion Agar.
Setting [18] is: TN1725, Klebsiella pneumoniae TN 1725, C-19393S2 0, Heart Infusion Agar.
Setting [19] is: TN1725, Klebsiella pneumoniae TN 1725, with C-19393S2 1 μg/ml, Heart Infusion Agar.
[20] abbreviates: TN1725, Klebsiella pneumoniae TN 1725, with C-19393S2 5 μg/ml, Heart Infusion Agar.
Setting [21] is: TN224, Proteus vulgaris TN 224, C-19393S2 0, Heart Infusion Agar.
[22] abbreviates: TN224, Proteus vulgaris TN 224, with C-19393S2 1 μg/ml, Heart Infusion Agar.
The mark [23] stands for this setting: TN224, Proteus vulgaris TN 224, with C-19393S2 5 μg/ml, Heart Infusion Agar.
Where [24] appears, read: aqueous solution in a neutral pH region.
The mark [25] stands for this setting: comparison with MM-4550 (MC 696-SY2-A).

Values after ≈ are worked out from the molar mass of the structure shown. “Also recorded” adds a separate entry of the source. Where a name gives a salt, the structure may show the parent alone. Read-outs that look alike come from different tables or passages of the source.

For `CC1(C)S[C@@H]2[C@H](NC(=O)[C@H](N)c3ccccc3)C(=O)N2[C@H]1C(=O)O` [Ampicillin], the MIC with Escherichia coli TN 659 (setting [15]) is > 800 µg/mL; in the data set on Escherichia coli TN 659 (setting [16]) it was 3.13 µg/mL (≈ 8.96 µM); in the data set with Escherichia coli TN 659 (setting [17]), ≤ 0.003 µg/mL; in [1] (setting [18]), 800 µg/mL (≈ 2290 µM); in data set [1] (setting [19]), 50 µg/mL (≈ 143 µM); in data set [1] (setting [20]), 0.78 µg/mL (≈ 2.23 µM). The values for the MIC in the data set with Proteus vulgaris TN 224 (setting [21]), in the data set with Proteus vulgaris TN 224 (setting [22]) and in the data set with Proteus vulgaris TN 224 (setting [23]) were 400 µg/mL (≈ 1140 µM), 1.56 µg/mL (≈ 4.46 µM) and 1.56 µg/mL (≈ 4.46 µM), respectively.
With `CC(=O)N/C=C/[S+]([O-])C1=C(C(=O)O)N2C(=O)C(C(C)(C)O)C2C1` (stereo not shown) [Antibiotic C-19393H2], in data set [2], the antimicrobial activity entry was “exhibits antibacterial activity against gram-positive and gram-negative bacteria; also recorded: has antimicrobial activity against gram-positive and gram-negative bacteria”. The Solubility entry in the data set “Solubility” (water, listed as H2) is on record as “water-soluble”. Also, the Stability entry in the data set “Stability” (setting [24]) and in “Stability” (setting [25]) was “stable” throughout.
`CC(=O)N/C=C/[S+]([O-])C1=C(C(=O)O)N2C(=O)C(C(C)(C)OS(=O)(=O)O)C2C1` (stereo not shown) [Antibiotic C-19393S2]: the antimicrobial activity entry in data set [2] is “exhibits an antimicrobial activity against gram-positive and gram-negative bacteria”; in [2] (listed as Antibiotic C-19393S2) it was “active against gram-positive and gram-negative bacteria”. In the data set on betalactamase, the betalactamase inhibiting activity entry is listed as “strong betalactamase inhibiting activity; also recorded: exhibits a beta-lactamase inhibiting activity”. Moreover, the “increase of sensitivity of resistant bacteria” value in data set [3] was “increases markedly the sensitivity; also recorded: markedly increases the sensitivity”. Further, the Solubility result in “Solubility” (water) is recorded as “water-soluble”. Moreover, the Stability entry in the data set “Stability” (setting [24]) and in “Stability” (setting [25]) was “stable” throughout.
For the molecule `CC(=O)N/C=C/[S+]([O-])C1=C(C(=O)O)N2C(=O)C(C(C)(C)O)C2C1` (stereo not shown) [C-19393H2 sodium salt], the MIC in the data set with Escherichia coli NIHJ was determined as 0.08 µg/mL; in data set [4] it was 0.31 µg/mL; in data set [5], 0.31 µg/mL; in data set [6], 5 µg/mL; in data set [7] it was 5 µg/mL; in data set [8], 0.31 µg/mL. In addition, the MIC in [9] was found to be 5 µg/mL; in data set [10], 10 µg/mL; in data set [11] it was 0.16 µg/mL; in data set [12], 0.63 µg/mL; in the data set with Sarcina lutea IFO 3232 it was 0.31 µg/mL; in data set [13], 0.31 µg/mL. Moreover, in the data set on Bacillus cereus IFO 3460, the MIC worked out at 10 µg/mL. The Solubility entry in the data set “Solubility” (acetone) is recorded as “sparingly soluble”; in the data set “Solubility” (butanol) it was “sparingly soluble”; in “Solubility” (chloroform) it was “Insoluble”; in “Solubility” (ethanol) it was “sparingly soluble”; in “Solubility” (ethyl acetate) it was “Insoluble”; in “Solubility” (methanol), “soluble”. In addition, the Solubility entry in “Solubility” (water) is on record as “soluble”.
As for `CC(=O)N/C=C/[S+]([O-])C1=C(C(=O)O)N2C(=O)C(C(C)(C)OS(=O)(=O)O)C2C1` (stereo not shown) [C-19393S2 disodium salt], the MIC in the data set on Escherichia coli NIHJ was 12.5 to 25 µg/mL; in [4], 12.5 µg/mL; in data set [5] it was 12.5 µg/mL; in [6], 100 µg/mL; in data set [7], 50 µg/mL; in data set [8] it was 25 µg/mL. Also, the MIC in data set [9] was 50 µg/mL; in data set [10] it was > 100 µg/mL; in data set [11] it was 6.25 µg/mL; in data set [12], 12.5 µg/mL; with Sarcina lutea IFO 3232, 12.5 µg/mL; in [13] it was 12.5 µg/mL. Moreover, the MIC in the data set on Bacillus cereus IFO 3460 was > 100 µg/mL. Also, the Solubility entry is given as “soluble” in “Solubility” (acetic acid); “Insoluble” in the data set “Solubility” (acetone); “sparingly soluble” in the data set “Solubility” (butanol); “Insoluble” in “Solubility” (chloroform); “soluble” in “Solubility” (dimethyl sulfoxide); “sparingly soluble” in “Solubility” (ethanol). In addition, the Solubility result in the data set “Solubility” (ethyl acetate) is recorded as “Insoluble”; in “Solubility” (methanol), “soluble”; in “Solubility” (pyridine) it was “sparingly soluble”; in the data set “Solubility” (water), “readily soluble”.
Turning to `CN(C)CCn1nnnc1SCC1=C(C(=O)O)N2C(=O)[C@@H](NC(=O)Cc3csc(N)n3)[C@H]2SC1` [Cefotiam], the MIC in the data set with Escherichia coli TN 659 (setting [15]) came to 0.2 µg/mL (≈ 0.38 µM); with Escherichia coli TN 659 (setting [16]), 0.1 µg/mL (≈ 0.19 µM); in the data set with Escherichia coli TN 659 (setting [17]) it was 0.006 µg/mL (≈ 0.0114 µM); in data set [1] (setting [18]) it was 200 µg/mL (≈ 380 µM); in data set [1] (setting [19]), 0.2 µg/mL (≈ 0.38 µM); in data set [1] (setting [20]), 0.02 µg/mL (≈ 0.038 µM). Also, the values for the MIC in the data set on Proteus vulgaris TN 224 (setting [21]), with Proteus vulgaris TN 224 (setting [22]) and in the data set on Proteus vulgaris TN 224 (setting [23]) were 200 µg/mL (≈ 380 µM), 0.2 µg/mL (≈ 0.38 µM) and 0.2 µg/mL (≈ 0.38 µM), respectively.
Take `CC(=O)N/C=C/[S+]([O-])C1=C(C(=O)O)N2C(=O)C(C(C)OS(=O)(=O)O)C2C1` (stereo not shown) [MC 696-SY2-A]: the Stability result in [14] is listed as “very unstable”.
